Target: Aβ42 (Homo sapiens, UniProt P05067)
Experiment: Th-T (thioflavin-T) assay of Aβ42 aggregation
Format: biochemical
Conditions: for Th-T fluorescence of Aβ42 with compound, mean of three wells (Fig. 7a source data): concentration 50, unit not given

Sequence of Aβ42 (P05067 672-713): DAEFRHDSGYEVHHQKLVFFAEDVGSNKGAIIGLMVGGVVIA

SMILES: C=C1CCC2C(C)(CCC=C(C)C)C(O)CCC2(C)C1Cc1c(OC)oc(C)c(C(=O)OC)c1=O (stereo not drawn) [Compound 14]
- Th-T fluorescence of Aβ42 with compound, mean of three wells (Fig. 7a source data) (time-course reading M143): 0.7264
- Th-T fluorescence of Aβ42 with compound, mean of three wells (Fig. 7a source data) (time-course reading M144): 0.7091
- Th-T fluorescence of Aβ42 with compound, mean of three wells (Fig. 7a source data) (time-course reading M145): 0.7134
- Th-T fluorescence of Aβ42 (sheet Fig. 7a), mean of three wells (head suffix _10 (concentration 10), reading M63): 2.709
- Th-T fluorescence of Aβ42 (sheet Fig. 7a), mean of three wells (head suffix _10 (concentration 10), reading M64): 2.685
- Th-T fluorescence of Aβ42 (sheet Fig. 7a), mean of three wells (head suffix _10 (concentration 10), reading M65): 2.69
- Th-T fluorescence of Aβ42 (sheet Fig. 7a), mean of three wells (head suffix _10 (concentration 10), reading M66): 2.693
- Th-T fluorescence of Aβ42 (sheet Fig. 7a), mean of three wells (head suffix _10 (concentration 10), reading M67): 2.707
- Th-T fluorescence of Aβ42 (sheet Fig. 7a), mean of three wells (head suffix _10 (concentration 10), reading M68): 2.71
- Th-T fluorescence of Aβ42 (sheet Fig. 7a), mean of three wells (head suffix _10 (concentration 10), reading M69): 2.6808
- Th-T fluorescence of Aβ42 (sheet Fig. 7a), mean of three wells (head suffix _10 (concentration 10), reading M70): 2.69
- Th-T fluorescence of Aβ42 (sheet Fig. 7a), mean of three wells (head suffix _10 (concentration 10), reading M71): 2.719
- Th-T fluorescence of Aβ42 (sheet Fig. 7a), mean of three wells (head suffix _10 (concentration 10), reading M72): 2.755
- Th-T fluorescence of Aβ42 (sheet Fig. 7a), mean of three wells (head suffix _10 (concentration 10), reading M73): 2.763
- Th-T fluorescence of Aβ42 (sheet Fig. 7a), mean of three wells (head suffix _10 (concentration 10), reading M74): 2.748
- Th-T fluorescence of Aβ42 (sheet Fig. 7a), mean of three wells (head suffix _10 (concentration 10), reading M75): 2.779
- Th-T fluorescence of Aβ42 (sheet Fig. 7a), mean of three wells (head suffix _10 (concentration 10), reading M76): 2.777
- Th-T fluorescence of Aβ42 (sheet Fig. 7a), mean of three wells (head suffix _10 (concentration 10), reading M77): 2.827
- Th-T fluorescence of Aβ42 (sheet Fig. 7a), mean of three wells (head suffix _10 (concentration 10), reading M78): 2.836
- Th-T fluorescence of Aβ42 (sheet Fig. 7a), mean of three wells (head suffix _10 (concentration 10), reading M79): 2.796
- Th-T fluorescence of Aβ42 (sheet Fig. 7a), mean of three wells (head suffix _10 (concentration 10), reading M80): 2.789
- Th-T fluorescence of Aβ42 (sheet Fig. 7a), mean of three wells (head suffix _10 (concentration 10), reading M81): 2.809
- Th-T fluorescence of Aβ42 (sheet Fig. 7a), mean of three wells (head suffix _10 (concentration 10), reading M82): 2.8409
- Th-T fluorescence of Aβ42 (sheet Fig. 7a), mean of three wells (head suffix _10 (concentration 10), reading M83): 2.8356
- Th-T fluorescence of Aβ42 (sheet Fig. 7a), mean of three wells (head suffix _10 (concentration 10), reading M84): 2.801
- Th-T fluorescence of Aβ42 (sheet Fig. 7a), mean of three wells (head suffix _20 (concentration 20), reading M63): 2.081
- Th-T fluorescence of Aβ42 (sheet Fig. 7a), mean of three wells (head suffix _20 (concentration 20), reading M64): 2.033
- Th-T fluorescence of Aβ42 (sheet Fig. 7a), mean of three wells (head suffix _20 (concentration 20), reading M65): 2.056
- Th-T fluorescence of Aβ42 (sheet Fig. 7a), mean of three wells (head suffix _20 (concentration 20), reading M66): 1.992
- Th-T fluorescence of Aβ42 (sheet Fig. 7a), mean of three wells (head suffix _20 (concentration 20), reading M67): 2.022
- Th-T fluorescence of Aβ42 (sheet Fig. 7a), mean of three wells (head suffix _20 (concentration 20), reading M68): 2.054
- Th-T fluorescence of Aβ42 (sheet Fig. 7a), mean of three wells (head suffix _20 (concentration 20), reading M69): 2.0412
- Th-T fluorescence of Aβ42 (sheet Fig. 7a), mean of three wells (head suffix _20 (concentration 20), reading M70): 2.012
- Th-T fluorescence of Aβ42 (sheet Fig. 7a), mean of three wells (head suffix _20 (concentration 20), reading M71): 1.97
- Th-T fluorescence of Aβ42 (sheet Fig. 7a), mean of three wells (head suffix _20 (concentration 20), reading M72): 1.988
- Th-T fluorescence of Aβ42 (sheet Fig. 7a), mean of three wells (head suffix _20 (concentration 20), reading M73): 1.972
- Th-T fluorescence of Aβ42 (sheet Fig. 7a), mean of three wells (head suffix _20 (concentration 20), reading M74): 1.9541
- Th-T fluorescence of Aβ42 (sheet Fig. 7a), mean of three wells (head suffix _20 (concentration 20), reading M75): 1.951
- Th-T fluorescence of Aβ42 (sheet Fig. 7a), mean of three wells (head suffix _20 (concentration 20), reading M76): 1.9741
- Th-T fluorescence of Aβ42 (sheet Fig. 7a), mean of three wells (head suffix _20 (concentration 20), reading M77): 1.953
- Th-T fluorescence of Aβ42 (sheet Fig. 7a), mean of three wells (head suffix _20 (concentration 20), reading M78): 1.933
- Th-T fluorescence of Aβ42 (sheet Fig. 7a), mean of three wells (head suffix _20 (concentration 20), reading M79): 1.92
- Th-T fluorescence of Aβ42 (sheet Fig. 7a), mean of three wells (head suffix _20 (concentration 20), reading M80): 1.931
- Th-T fluorescence of Aβ42 (sheet Fig. 7a), mean of three wells (head suffix _20 (concentration 20), reading M81): 1.911
- Th-T fluorescence of Aβ42 (sheet Fig. 7a), mean of three wells (head suffix _20 (concentration 20), reading M82): 1.915
- Th-T fluorescence of Aβ42 (sheet Fig. 7a), mean of three wells (head suffix _20 (concentration 20), reading M83): 1.888
- Th-T fluorescence of Aβ42 (sheet Fig. 7a), mean of three wells (head suffix _20 (concentration 20), reading M84): 1.889
- Th-T fluorescence of Aβ42 (sheet Fig. 7a), mean of three wells (head suffix _50 (concentration 50), reading M63): 3.83
- Th-T fluorescence of Aβ42 (sheet Fig. 7a), mean of three wells (head suffix _50 (concentration 50), reading M64): 3.705
- Th-T fluorescence of Aβ42 (sheet Fig. 7a), mean of three wells (head suffix _50 (concentration 50), reading M65): 3.586
- Th-T fluorescence of Aβ42 (sheet Fig. 7a), mean of three wells (head suffix _50 (concentration 50), reading M66): 3.506
- Th-T fluorescence of Aβ42 (sheet Fig. 7a), mean of three wells (head suffix _50 (concentration 50), reading M67): 3.421
- Th-T fluorescence of Aβ42 (sheet Fig. 7a), mean of three wells (head suffix _50 (concentration 50), reading M68): 3.307
- Th-T fluorescence of Aβ42 (sheet Fig. 7a), mean of three wells (head suffix _50 (concentration 50), reading M69): 3.193
- Th-T fluorescence of Aβ42 (sheet Fig. 7a), mean of three wells (head suffix _50 (concentration 50), reading M70): 3.0995
- Th-T fluorescence of Aβ42 (sheet Fig. 7a), mean of three wells (head suffix _50 (concentration 50), reading M71): 3.0146
- Th-T fluorescence of Aβ42 (sheet Fig. 7a), mean of three wells (head suffix _50 (concentration 50), reading M72): 2.931
